From PubChem BioAssay (NCI)
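All cell lines were grown in 96-well plates and treated with compound for 48 hours. TGI: concentration producing complete growth inhibition.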 Where a SMILES comes first, the peptide text is derived from it. The star is where a group is joined. Cbz = O=C(OCc1ccccc1)*; NHNH2 = NN*

How the values were obtained:
Assay in all cases: NCI anticancer screen, dose series, 48 h
SNB-19 CNS = tested on: SNB-19 CNS
SN12C renal = tested on: SN12C renal
SF-268 CNS = tested on: SF-268 CNS
ACHN renal = tested on: ACHN renal
A549 NSCLC = tested on: A549 NSCLC
T-47D breast = tested on: T-47D breast
OVCAR-5 ovarian = tested on: OVCAR-5 ovarian
KM12 colon = tested on: KM12 colon
MCF7 breast = tested on: MCF7 breast

Row | SMILES | TGI (SNB-19 CNS) [µM] | TGI (SN12C renal) [µM] | TGI (SF-268 CNS) [µM] | TGI (ACHN renal) [µM] | TGI (A549 NSCLC) [µM] | TGI (T-47D breast) [µM] | TGI (OVCAR-5 ovarian) [µM] | TGI (KM12 colon) [µM] | TGI (MCF7 breast) [µM]
1 | CCOC(=O)/C(C#N)=N\Nc1ccc(-n2c(C)nc3ccccc3c2=O)cc1 | > 100 | > 100 | > 100 | > 100 | > 100 | > 100 | > 100 | > 100 | > 100
2 | CC(C)(C)c1cc(/C=C(\C#N)C(=O)NCCO)cc(C(C)(C)C)c1O | > 100 | 51.6 | > 100 | 76.5 | > 100 | 76.8 | 62.8 | 52.7 | 93.5
3 | COCc1nc2c(OC)cc(-c3nc4ccc(N5CCN(C)CC5)cc4[nH]3)c(OC)c2[nH]1 | > 100 | > 100 | > 100 | > 100 | > 100 | > 100 | > 100 | > 100 | > 100
4 | CCC(=O)Oc1c2ccsc2c(OC(=O)CC)c2ccsc12 | 1.58 | 1.16 | 2.29 | 5.49 | 4.51 | 3.88 | 3.35 | 3.34 | 3.43
5 | COc1ccc2c(c1)CC1=C(O2)c2ccc(OC)cc2OC1 |  | 44.3 | 68.5 | 36.5 | > 100 | 37.5 | > 100 | > 100 | 
6 | COc1cc(/C=C\C(=O)O)ccc1OCc1ccccc1 | > 100 | > 100 | > 100 | > 100 | > 100 | > 100 | > 100 | > 100 | > 100
7 | Brc1cc2nn(-c3ccccc3)nc2c2nonc12 | > 100 | > 100 | > 100 | > 100 | > 100 | > 100 | > 100 | > 100 | > 100
8 | COc1ccc(Nc2nc3c([nH]2)c(=O)n(C)c(=O)n3C)cc1 |  | > 10 | > 10 |  | > 10 | > 10 |  | > 10 | > 10
9 | CC1(C(=O)O)CCCC1C(=O)O (stereo not drawn) | > 100 | > 100 | > 100 | > 100 | > 100 | > 100 | > 100 | > 100 | 
10 | O=C1C=C(c2ccccc2)O/C1=C/C(=O)c1ccc(Cl)cc1 | > 100 | 29.9 | 54.6 | 30.5 |  |  | 43.3 | 36.7 | 30.1
11 | CCNC(=O)C1CCCN1C(=O)C(CCCN=C(N)N)NC(=O)C(CC(C)C)NC(=O)C(Cc1c[nH]c2ccccc12)NC(=O)C(Cc1ccc(O)cc1)NC(=O)C(CO)NC(=O)C(Cc1c[nH]c2ccccc12)NC(=O)C(Cc1cnc[nH]1)NC(=O)C1CCC(=O)N1 (stereo not drawn) | > 100 | > 100 | > 100 | > 100 | > 100 |  | > 100 | > 100 | > 100
12 | Cc1c2ncccc2cc2oc3ccccc3c(=O)c12 |  | > 100 | > 100 | > 100 | > 100 | 61.7 | 59.7 | > 100 | > 100
13 | Nc1ccc2[nH]c(-c3cccc(Cl)c3)cc(=O)c2c1 | > 100 | > 100 |  | > 100 | > 100 | > 100 | > 100 | > 100 | > 100
14 | O=c1oc2cc(O)ccc2c(O)c1C(c1ccc(C(c2c(O)c3ccc(O)cc3oc2=O)c2c(O)c3ccc(O)cc3oc2=O)cc1)c1c(O)c2ccc(O)cc2oc1=O |  | > 100 | > 100 |  | > 100 | > 100 | > 100 |  | > 100
15 | O=C(N/N=C/c1cc(Br)cc(Br)c1[O-])c1ccccc1O.O=C(N/N=C/c1cc(Br)cc(Br)c1[O-])c1ccccc1O.[Fe+2] | 20.4 |  | 38.9 | 21.1 | 29.3 |  | 15.8 | 23.9 | 
16 | CNC(=O)N(CCC#N)[C@H]1CCCC[C@@H]1N(C(=O)NC)c1ccccc1 | > 100 | > 100 |  | > 100 | > 100 | > 100 | > 100 | > 100 | > 100
17 | COc1ccc2cc(NC(=O)N/N=C\c3ccc(Cl)cc3)ccc2c1 | > 100 | > 100 | > 100 | > 100 | > 100 |  | > 100 | > 100 | > 100
18 | Cc1cn(C(C)OCCN2C(=O)c3ccccc3C2=O)c(=O)[nH]c1=O (stereo not drawn) | > 100 | > 100 |  | > 100 | > 100 | > 100 | > 100 | > 100 | > 100
19 | COc1ccc(-c2c(C#N)c(N)nc3c2CCS(=O)(=O)c2ccccc2-3)cc1 | > 100 | > 100 | > 100 | > 100 | > 100 | > 100 |  | > 100 | 
20 | COC(=O)CC(NC(=O)OCc1ccccc1)C(=O)NC(CC(=O)OC)C(=O)NC(CC(=O)OC)C(=O)NC(CC(=O)OC)C(=O)NC(CC(=O)OC)C(=O)NC(CC(=O)OC)C(=O)NN (stereo not drawn) (Cbz-D(OMe)D(OMe)D(OMe)D(OMe)D(OMe)D(OMe)-NHNH2; configuration not given here) | > 100 | > 100 | > 100 | > 100 |  | > 100 | > 100 | > 100 | > 100
21 | CSc1nc2c(c(=O)n1C)N=C(c1ccccc1)[C@H](C(CC(=O)c1ccccc1)c1ccccc1)C(c1ccccc1)N2 (stereo partly drawn) | > 100 | > 100 |  | > 100 | > 100 |  | > 100 | > 100 | > 100
22 | CN(C)S(=O)(=O)Nc1nnc(S(N)(=O)=O)s1 | > 100 |  | > 100 | > 100 | > 100 | > 100 | > 100 | > 100 | > 100
23 | CCN1CCC(O)(C(C(=O)O)c2ccccc2)CC1 (stereo not drawn) | > 100 |  | > 100 | > 100 | > 100 | > 100 | > 100 | > 100 | > 100
24 | CC1(C)OCC2OC3([C@H]4OC(C)(C)O[C@@H]4CO)OC(C)(C)OC3C2O1 (stereo partly drawn) | > 100 | > 100 |  | > 100 | > 100 | > 100 | > 100 | > 100 | > 100
